Laboratory results published in article PMC10586084 (Journal of Enzyme Inhibition and Medicinal Chemistry, 2023).
Each block holds one compound with its values, some of them ahead of it.

Columns and labels:
Format in all cases: biochemical
hCA I = hCA I (Homo sapiens, UniProt P00915); assay: stopped-flow CO2 hydrase assay, hCA I; details: stopped flow technique, mean from three assays
hCA XII = hCA XII (Homo sapiens, UniProt O43570); assay: stopped-flow CO2 hydrase assay, hCA XII; details: for Ki: KI hCA XII, stopped flow technique, mean from three assays; for Selectivity index I/XII: ratio KI hCA I / KI hCA XII; for Selectivity index II/XII: ratio KI hCA II / KI hCA XII; for Selectivity index IV/XII: ratio KI hCA IV / KI hCA XII
Chain of hCA XII (O43570 25-354): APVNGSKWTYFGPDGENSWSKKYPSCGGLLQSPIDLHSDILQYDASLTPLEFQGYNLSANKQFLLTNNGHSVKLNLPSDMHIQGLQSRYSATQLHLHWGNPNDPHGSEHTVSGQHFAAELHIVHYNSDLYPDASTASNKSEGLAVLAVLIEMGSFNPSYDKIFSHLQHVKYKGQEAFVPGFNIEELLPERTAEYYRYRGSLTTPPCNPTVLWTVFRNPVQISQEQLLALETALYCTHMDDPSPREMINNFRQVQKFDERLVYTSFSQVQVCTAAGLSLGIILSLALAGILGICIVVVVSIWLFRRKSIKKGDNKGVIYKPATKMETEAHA

hCA IV = hCA IV (Homo sapiens, UniProt P22748); assay: stopped-flow CO2 hydrase assay, hCA IV; details: stopped flow technique, mean from three assays
Chain of hCA IV (P22748 19-284 limits assumed): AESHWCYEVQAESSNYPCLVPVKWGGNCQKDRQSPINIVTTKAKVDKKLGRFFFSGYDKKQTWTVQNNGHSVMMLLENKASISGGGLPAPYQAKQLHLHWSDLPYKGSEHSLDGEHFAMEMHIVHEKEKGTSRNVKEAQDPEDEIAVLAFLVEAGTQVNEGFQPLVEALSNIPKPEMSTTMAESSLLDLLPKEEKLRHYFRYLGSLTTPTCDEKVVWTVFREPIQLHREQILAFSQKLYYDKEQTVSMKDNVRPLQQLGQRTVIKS

hCA IX = hCA IX (Homo sapiens, UniProt Q16790); assay: biochemical; details: for Ki: KI hCA IX, stopped flow technique, mean from three assays; for Selectivity index I/IX: ratio KI hCA I / KI hCA IX; for Selectivity index II/IX: ratio KI hCA II / KI hCA IX; for Selectivity index IV/IX: ratio KI hCA IV / KI hCA IX
hCA II = hCA II (Homo sapiens, UniProt P00918); assay: stopped-flow CO2 hydrase assay, hCA II; details: stopped flow technique, mean from three assays

Chain of hCA I (P00915 whole entry): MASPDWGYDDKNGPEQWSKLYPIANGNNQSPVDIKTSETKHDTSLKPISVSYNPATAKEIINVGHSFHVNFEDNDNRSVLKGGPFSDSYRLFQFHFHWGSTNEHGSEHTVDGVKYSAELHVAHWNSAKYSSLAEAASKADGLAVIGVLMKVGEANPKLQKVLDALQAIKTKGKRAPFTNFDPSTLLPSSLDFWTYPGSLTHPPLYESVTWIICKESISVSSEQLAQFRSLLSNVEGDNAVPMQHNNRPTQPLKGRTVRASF

SMILES: NS(=O)(=O)c1ccc(Nc2nc3nccc(-c4ccccc4)n3n2)cc1 [Compound 1a, 4-((7-Phenyl-[1,2,4]triazolo[1,5-a]pyrimidin-2-yl)amino)benzenesulfonamide]
Ki (hCA I): 841 nM | Ki (hCA XII): 71.7 nM | Selectivity index I/XII (hCA XII): 11.7 | Selectivity index II/XII (hCA XII): 1.0 | Selectivity index IV/XII (hCA XII): 18.5 | Ki (hCA IV): 1330 nM | Ki (hCA IX): 33.2 nM | Selectivity index I/IX (hCA IX): 25.3 | Selectivity index II/IX (hCA IX): 2.3 | Selectivity index IV/IX (hCA IX): 39.9 | Ki (hCA II): 75.3 nM

SMILES: COc1cc(OC)cc(-c2ccnc3nc(Nc4ccc(S(N)(=O)=O)cc4)nn23)c1 [Compound 1aa, 4-((7-(3,5-Dimethoxyphenyl)-[1,2,4]triazolo[1,5-a]pyrimidin-2-yl)amino)benzenesulfonamide]
Ki (hCA I): 4530 nM | Ki (hCA XII): 27.1 nM | Selectivity index I/XII (hCA XII): 167 | Selectivity index II/XII (hCA XII): 4.1 | Selectivity index IV/XII (hCA XII): 37.2 | Ki (hCA IV): 1010 nM | Ki (hCA IX): 46.8 nM | Selectivity index I/IX (hCA IX): 96.7 | Selectivity index II/IX (hCA IX): 2.4 | Selectivity index IV/IX (hCA IX): 21.5 | Ki (hCA II): 110 nM

SMILES: COc1ccc(-c2ccnc3nc(Nc4ccc(S(N)(=O)=O)cc4)nn23)cc1OC [Compound 1ab, 4-((7-(3,4-Dimethoxyphenyl)-[1,2,4]triazolo[1,5-a]pyrimidin-2-yl)amino)benzenesulfonamide]
Ki (hCA I): 993 nM | Ki (hCA XII): 9 nM | Selectivity index I/XII (hCA XII): 110 | Selectivity index II/XII (hCA XII): 10.6 | Selectivity index IV/XII (hCA XII): 169 | Ki (hCA IV): 1520 nM | Ki (hCA IX): 35.8 nM | Selectivity index I/IX (hCA IX): 27.7 | Selectivity index II/IX (hCA IX): 2.6 | Selectivity index IV/IX (hCA IX): 42.4 | Ki (hCA II): 95.2 nM

SMILES: NS(=O)(=O)c1ccc(Nc2nc3nccc(-c4ccc(Cl)cc4)n3n2)cc1 [Compound 1k, 4-((7-(4-Chlorophenyl)-[1,2,4]triazolo[1,5-a]pyrimidin-2-yl)amino)benzenesulfonamide]
Ki (hCA I): 2250 nM | Ki (hCA XII): 29.2 nM | Selectivity index I/XII (hCA XII): 77.1 | Selectivity index II/XII (hCA XII): 2.1 | Selectivity index IV/XII (hCA XII): 137 | Ki (hCA IV): 4000 nM | Ki (hCA IX): 74.1 nM | Selectivity index I/IX (hCA IX): 30.4 | Selectivity index II/IX (hCA IX): 0.8 | Selectivity index IV/IX (hCA IX): 53.9 | Ki (hCA II): 62.4 nM

SMILES: NS(=O)(=O)c1ccc(Nc2nc3nccc(-c4cccc(Cl)c4)n3n2)cc1 [Compound 1l, 4-((7-(3-Chlorophenyl)-[1,2,4]triazolo[1,5-a]pyrimidin-2-yl)amino)benzenesulfonamide]
Ki (hCA I): 6580 nM | Ki (hCA XII): 46.4 nM | Selectivity index I/XII (hCA XII): 142 | Selectivity index II/XII (hCA XII): 2.7 | Selectivity index IV/XII (hCA XII): 129 | Ki (hCA IV): 5980 nM | Ki (hCA IX): 30.4 nM | Selectivity index I/IX (hCA IX): 216 | Selectivity index II/IX (hCA IX): 4.06 | Selectivity index IV/IX (hCA IX): 197 | Ki (hCA II): 124 nM

SMILES: NS(=O)(=O)c1ccc(Nc2nc3nccc(-c4ccc(Br)cc4)n3n2)cc1 [Compound 1n, 4-((7-(4-Bromophenyl)-[1,2,4]triazolo[1,5-a]pyrimidin-2-yl)amino)benzenesulfonamide]
Ki (hCA I): 3370 nM | Ki (hCA XII): 58.2 nM | Selectivity index I/XII (hCA XII): 57.8 | Selectivity index II/XII (hCA XII): 3.4 | Selectivity index IV/XII (hCA XII): 89.6 | Ki (hCA IV): 5210 nM | Ki (hCA IX): 52.7 nM | Selectivity index I/IX (hCA IX): 63.8 | Selectivity index II/IX (hCA IX): 3.8 | Selectivity index IV/IX (hCA IX): 98.9 | Ki (hCA II): 200 nM

The next compounds have a lower Ki (hCA I) than those just listed; values first:

Ki (hCA I): 501 nM | Ki (hCA XII): 66.9 nM | Selectivity index I/XII (hCA XII): 7.5 | Selectivity index II/XII (hCA XII): 1.5 | Selectivity index IV/XII (hCA XII): 39.7 | Ki (hCA IV): 2660 nM | Ki (hCA IX): 49.5 nM | Selectivity index I/IX (hCA IX): 10.1 | Selectivity index II/IX (hCA IX): 2.0 | Selectivity index IV/IX (hCA IX): 53.7 | Ki (hCA II): 98.2 nM
SMILES: NS(=O)(=O)c1ccc(Nc2nc3nccc(-c4cccs4)n3n2)cc1 [Compound 1b, 4-((7-(Thiophen-2-yl)-[1,2,4]triazolo[1,5-a]pyrimidin-2-yl)amino)benzenesulfonamide]

Ki (hCA I): 725 nM | Ki (hCA XII): 15.3 nM | Selectivity index I/XII (hCA XII): 47.4 | Selectivity index II/XII (hCA XII): 2.9 | Selectivity index IV/XII (hCA XII): 47.5 | Ki (hCA IV): 726 nM | Ki (hCA IX): 41.6 nM | Selectivity index I/IX (hCA IX): 17.4 | Selectivity index II/IX (hCA IX): 1.0 | Selectivity index IV/IX (hCA IX): 17.5 | Ki (hCA II): 43.7 nM
SMILES: NS(=O)(=O)c1ccc(Nc2nc3nccc(-c4ccncc4)n3n2)cc1 [Compound 1c, 4-((7-(Pyridin-4-yl)-[1,2,4]triazolo[1,5-a]pyrimidin-2-yl)amino)benzenesulfonamide]

Ki (hCA I): 602 nM | Ki (hCA XII): 8.8 nM | Ki (hCA IV): 333 nM | Ki (hCA IX): 5.1 nM | Ki (hCA II): 24.8 nM
SMILES: NS(=O)(=O)c1ccc(Nc2nc3nccc(-c4cccnc4)n3n2)cc1 [Compound 1d, 4-((7-(Pyridin-3-yl)-[1,2,4]triazolo[1,5-a]pyrimidin-2-yl)amino)benzenesulfonamide]

Ki (hCA I): 763 nM | Ki (hCA XII): 62.4 nM | Selectivity index I/XII (hCA XII): 12.2 | Selectivity index II/XII (hCA XII): 1.3 | Selectivity index IV/XII (hCA XII): 15.9 | Ki (hCA IV): 993 nM | Ki (hCA IX): 28.8 nM | Selectivity index I/IX (hCA IX): 26.5 | Selectivity index II/IX (hCA IX): 2.9 | Selectivity index IV/IX (hCA IX): 34.5 | Ki (hCA II): 82.7 nM
SMILES: NS(=O)(=O)c1ccc(Nc2nc3nccc(-c4ccc(F)cc4)n3n2)cc1 [Compound 1f, 4-((7-(4-Fluorophenyl)-[1,2,4]triazolo[1,5-a]pyrimidin-2-yl)amino)benzenesulfonamide]

Ki (hCA I): 551 nM | Ki (hCA XII): 42.6 nM | Selectivity index I/XII (hCA XII): 12.9 | Selectivity index II/XII (hCA XII): 1.1 | Selectivity index IV/XII (hCA XII): 20.0 | Ki (hCA IV): 853 nM | Ki (hCA IX): 22.4 nM | Selectivity index I/IX (hCA IX): 24.6 | Selectivity index II/IX (hCA IX): 2.0 | Selectivity index IV/IX (hCA IX): 38.1 | Ki (hCA II): 45.9 nM
SMILES: NS(=O)(=O)c1ccc(Nc2nc3nccc(-c4cccc(F)c4)n3n2)cc1 [Compound 1g, 4-((7-(3-Fluorophenyl)-[1,2,4]triazolo[1,5-a]pyrimidin-2-yl)amino)benzenesulfonamide]

Ki (hCA I): 682 nM | Ki (hCA XII): 25.8 nM | Selectivity index I/XII (hCA XII): 26.4 | Selectivity index II/XII (hCA XII): 1.4 | Selectivity index IV/XII (hCA XII): 35.7 | Ki (hCA IV): 920 nM | Ki (hCA IX): 19.5 nM | Selectivity index I/IX (hCA IX): 35.0 | Selectivity index II/IX (hCA IX): 1.8 | Selectivity index IV/IX (hCA IX): 47.2 | Ki (hCA II): 35.9 nM
SMILES: NS(=O)(=O)c1ccc(Nc2nc3nccc(-c4ccccc4F)n3n2)cc1 [Compound 1h, 4-((7-(2-Fluorophenyl)-[1,2,4]triazolo[1,5-a]pyrimidin-2-yl)amino)benzenesulfonamide]

Ki (hCA I): 743 nM | Ki (hCA XII): 22.5 nM | Selectivity index I/XII (hCA XII): 33 | Selectivity index II/XII (hCA XII): 0.8 | Selectivity index IV/XII (hCA XII): 31.2 | Ki (hCA IV): 703 nM | Ki (hCA IX): 21.9 nM | Selectivity index I/IX (hCA IX): 33.9 | Selectivity index II/IX (hCA IX): 0.8 | Selectivity index IV/IX (hCA IX): 32.1 | Ki (hCA II): 17.6 nM
SMILES: NS(=O)(=O)c1ccc(Nc2nc3nccc(-c4c(F)cccc4F)n3n2)cc1 [Compound 1i, 4-((7-(2,6-Difluorophenyl)-[1,2,4]triazolo[1,5-a]pyrimidin-2-yl)amino)benzenesulfonamide]
